Measured values from PMC9908032, “Novel nitroxide-bile acid conjugates inform substrate requirements for human bile acid transporters” (European journal of pharmaceutical sciences : official …, 2022).

Assays:
[1] = target: T1, Na+/taurocholate cotransporting polypeptide (hNTCP) (Homo sapiens, UniProt Q14973); test: inhibition of [3H]-taurocholate uptake in transiently transfected hNTCP-HEK293T cells; type: cell-based
T1 construct: gene SLC10A1
T1 sequence (Q14973 1-349): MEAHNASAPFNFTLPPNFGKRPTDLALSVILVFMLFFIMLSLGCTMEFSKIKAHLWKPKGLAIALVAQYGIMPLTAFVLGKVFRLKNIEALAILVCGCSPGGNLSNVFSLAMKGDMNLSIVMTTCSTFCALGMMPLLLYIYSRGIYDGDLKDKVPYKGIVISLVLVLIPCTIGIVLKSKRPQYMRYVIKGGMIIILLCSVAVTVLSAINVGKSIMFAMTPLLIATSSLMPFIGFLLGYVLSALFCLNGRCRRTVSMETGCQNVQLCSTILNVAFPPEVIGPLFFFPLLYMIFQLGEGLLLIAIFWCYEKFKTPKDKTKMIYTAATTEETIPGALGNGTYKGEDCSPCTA

[2] = target: T2, apical sodium dependent bile acid transporter (hASBT) (Homo sapiens, UniProt Q12908); test: inhibition of [3H]-taurocholate uptake in stably transfected hASBT-MDCK cells; type: cell-based
T2 construct: gene SLC10A2
T2 sequence (Q12908 1-348): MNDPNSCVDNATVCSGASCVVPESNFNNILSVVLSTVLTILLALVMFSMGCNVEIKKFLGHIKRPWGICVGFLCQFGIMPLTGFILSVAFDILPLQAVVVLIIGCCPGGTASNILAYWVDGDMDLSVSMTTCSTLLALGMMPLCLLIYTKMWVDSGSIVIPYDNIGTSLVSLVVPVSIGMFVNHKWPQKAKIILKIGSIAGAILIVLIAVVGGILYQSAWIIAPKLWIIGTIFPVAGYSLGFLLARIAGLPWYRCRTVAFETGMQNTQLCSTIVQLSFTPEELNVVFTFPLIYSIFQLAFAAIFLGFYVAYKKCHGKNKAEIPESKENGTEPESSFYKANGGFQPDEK

[3] = substrate: C[C@H](CCC(=O)NCCS(=O)(=O)O)[C@H]1CC[C@H]2[C@@H]3[C@H](O)C[C@@H]4C[C@H](O)CC[C@]4(C)[C@H]3C[C@H](O)[C@]12C; test: cells, lysate or membranes; details: Na+

C[C@H](CCC(=O)NCC(=O)O)[C@H]1CC[C@H]2[C@@H]3[C@H](O)C[C@@H]4C[C@H](O)CC[C@]4(C)[C@H]3C[C@H](O)[C@]12C [GCA, glycocholic acid] gave a Ki [1] of 2.47 ± 0.43 µM and a Ki [2] of 8.28 ± 0.57 µM.

B1: Na+/taurocholate cotransporting polypeptide (hNTCP) (Homo sapiens) (protein)
chain: T1 sequence (Q14973 1-349)
With B1 the Km [3] was 2.14 ± 1.55 µM.
